The assay has as its target T1, Alpha/beta hydrolase domain-containing 5 (ABHD5, CGI-58) (Mus musculus, UniProt Q9DBL9).
T1 construct: ABHD5 fused to C-terminal fragment of G. princeps luciferase
T1 sequence (Q9DBL9 1-351): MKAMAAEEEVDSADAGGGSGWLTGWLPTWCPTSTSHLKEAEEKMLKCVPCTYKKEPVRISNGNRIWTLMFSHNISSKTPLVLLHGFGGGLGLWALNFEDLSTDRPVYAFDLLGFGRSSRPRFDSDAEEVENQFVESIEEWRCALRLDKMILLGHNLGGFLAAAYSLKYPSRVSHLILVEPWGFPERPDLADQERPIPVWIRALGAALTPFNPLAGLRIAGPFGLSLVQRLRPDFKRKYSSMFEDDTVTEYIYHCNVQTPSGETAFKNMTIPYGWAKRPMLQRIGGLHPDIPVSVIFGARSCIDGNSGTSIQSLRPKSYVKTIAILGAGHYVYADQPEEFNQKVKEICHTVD
T1 sequence (Q8BVZ1 1-463 partner): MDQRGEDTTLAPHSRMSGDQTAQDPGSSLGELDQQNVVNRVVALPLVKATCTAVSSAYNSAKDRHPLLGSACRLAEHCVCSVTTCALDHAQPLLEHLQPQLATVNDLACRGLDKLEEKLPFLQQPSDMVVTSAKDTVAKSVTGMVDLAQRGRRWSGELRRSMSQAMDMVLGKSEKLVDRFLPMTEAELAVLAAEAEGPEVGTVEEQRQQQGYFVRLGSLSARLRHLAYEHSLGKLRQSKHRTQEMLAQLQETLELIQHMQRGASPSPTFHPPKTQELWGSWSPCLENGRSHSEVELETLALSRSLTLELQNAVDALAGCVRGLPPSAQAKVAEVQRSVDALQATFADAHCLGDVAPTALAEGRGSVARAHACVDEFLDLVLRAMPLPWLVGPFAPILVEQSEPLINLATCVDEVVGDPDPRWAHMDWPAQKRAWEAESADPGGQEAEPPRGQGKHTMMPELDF
As to the kind of experiment: split luciferase complementation in cell lysates: ligand-induced dissociation of ABHD5-PLIN5. Type of assay: biochemical.

Drawing on PMC9274090, “Molecular Modeling of ABHD5 Structure and Ligand Recognition” (Frontiers in Molecular Biosciences, 2022), this text covers IC50 for 3 compounds.

Like-named read-outs stand apart in the source and are kept apart here.

Turning to `COc1ccc(CC(=O)N2CCN(S(=O)(=O)c3ccc4c(c3)OCCCO4)CC2)cc1` [SR3134, SR-03000003134], the IC50 (in general, the point on the concentration scale where inhibition reaches its midpoint) (read-out: IC50) amounted to 8.9 µM.

As to `O=C(Cc1cccc(F)c1)N1CCN(S(=O)(=O)c2ccc3c(c2)OCCO3)CC1` [SR3133, SR-03000003133], where the note is “read-out: IC50”, the IC50 came to 15.9 µM. The compound `Cc1ccc2c(CC(=O)N3CCN(S(=O)(=O)c4ccc5c(c4)OCCO5)CC3)coc2c1` [SR4559, SR-01000604559] registered an IC50 of 3.44 µM.
